In US11826351B2, “Compounds useful as kinase inhibitors” (Loxo Oncology, Inc., priority 2015, dated 2023) one finds IC50 data, which are given here for 21 compounds.

The target of test [1] is T1, Recombinant BTK^WT kinase (Homo sapiens, UniProt Q06187).
T1 construct: purchased Invitrogen
The experiment in a line: BTK WT binding affinity (LanthaScreen TR-FRET). The conditions noted are these: Kinase Tracer 236, 5 h incubation. An outline of the steps:
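Tracer-displacement TR-FRET: 2.5 nM recombinant BTK^WT, 2 nM Eu anti-His antibody and 15 nM Kinase Tracer 236 incubated with varying inhibitor concentrations for 5 h in Kinase Buffer A. Signal read at 340 nm excitation, 615/665 nm emission; IC50 from variable-slope log[inhibitor]–response fit.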
On the technique in general: TR-FRET usually uses a lanthanide donor and a delayed reading to cut background.

Test [2] concerns the target T2, Recombinant BTK^C481S kinase (Homo sapiens, UniProt Q06187, C481S).
T2 construct: purchased SignalChem
The experiment in a line: BTK C481S binding affinity (LanthaScreen TR-FRET). The note with it: Kinase Tracer 236, 5 h incubation. An outline of the steps: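 BTK C481S tracer-displacement TR-FRET: 5 nM His-tagged kinase, 2 nM Eu anti-His antibody and 30 nM Kinase Tracer 236 incubated with titrated inhibitor for 5 h in Kinase Buffer A. Read at 340 nm excitation, 615/665 nm emission; IC50 from variable-slope log[inhibitor]–response fit.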

The target in a further test is T3, Recombinant EGFR (Homo sapiens, UniProt P00533).
T3 construct: purchased Invitrogen
T3 sequence (P00533 25-1210): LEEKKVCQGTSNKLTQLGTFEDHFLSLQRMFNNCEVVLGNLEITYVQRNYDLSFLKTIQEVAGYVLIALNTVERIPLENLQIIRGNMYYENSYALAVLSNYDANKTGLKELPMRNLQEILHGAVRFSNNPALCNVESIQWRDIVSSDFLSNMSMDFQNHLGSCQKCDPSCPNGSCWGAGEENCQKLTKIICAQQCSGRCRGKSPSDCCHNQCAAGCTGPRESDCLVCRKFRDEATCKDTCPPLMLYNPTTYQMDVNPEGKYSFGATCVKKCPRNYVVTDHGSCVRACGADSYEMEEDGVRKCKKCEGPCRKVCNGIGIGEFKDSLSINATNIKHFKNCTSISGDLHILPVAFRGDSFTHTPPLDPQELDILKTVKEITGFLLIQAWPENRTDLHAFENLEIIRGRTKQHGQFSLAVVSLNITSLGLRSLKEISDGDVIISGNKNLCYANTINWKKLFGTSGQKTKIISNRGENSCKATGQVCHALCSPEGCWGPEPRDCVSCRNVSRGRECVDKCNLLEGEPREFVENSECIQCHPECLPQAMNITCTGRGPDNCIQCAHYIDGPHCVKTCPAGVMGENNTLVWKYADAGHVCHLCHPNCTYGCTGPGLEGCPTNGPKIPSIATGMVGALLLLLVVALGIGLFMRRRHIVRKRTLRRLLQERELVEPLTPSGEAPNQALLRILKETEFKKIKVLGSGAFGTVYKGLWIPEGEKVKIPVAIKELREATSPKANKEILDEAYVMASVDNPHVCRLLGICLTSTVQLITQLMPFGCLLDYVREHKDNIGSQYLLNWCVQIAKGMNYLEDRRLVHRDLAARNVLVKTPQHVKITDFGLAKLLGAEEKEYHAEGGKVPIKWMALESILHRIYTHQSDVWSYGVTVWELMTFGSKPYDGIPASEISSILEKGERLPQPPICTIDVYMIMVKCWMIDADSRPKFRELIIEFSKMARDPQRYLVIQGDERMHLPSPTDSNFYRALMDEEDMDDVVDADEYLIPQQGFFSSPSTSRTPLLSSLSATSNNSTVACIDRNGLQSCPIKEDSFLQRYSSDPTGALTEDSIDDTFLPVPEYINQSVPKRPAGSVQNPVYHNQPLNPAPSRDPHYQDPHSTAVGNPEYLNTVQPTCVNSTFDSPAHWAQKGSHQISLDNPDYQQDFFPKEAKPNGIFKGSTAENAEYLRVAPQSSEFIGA
The experiment in a line: EGFR binding affinity (LanthaScreen TR-FRET). The note with it: Kinase Tracer 199, 5 h incubation. A digest of the protocol: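 TR-FRET binding (LanthaScreen) with recombinant EGFR; signal measured across a compound concentration range. IC50 obtained by fitting RFU against log[inhibitor] to a variable-slope model.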

The test system of test [3] is OCI-Ly10 human DLBCL cells. The experiment in a line: OCI-Ly10 anti-proliferative activity (Resazurin). The note with it: Homo sapiens, OCI-Ly10, 72 h, OCI-Ly10 cells, 72 h compound treatment, Resazurin; read-out: Proliferation Assay OCI-Ly10-20% FBS. It is filed as cell-based. An outline of the steps:
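OCI-Ly10 human DLBCL cells, whose growth depends on NFκB signalling, were seeded at 7.5×10^3 cells per well in 96-well plates with a range of compound concentrations and kept at 37° C for 72 h. Resazurin was then added, and after 5 h fluorescence was read at 590 nm.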
A general note: The colour change of resazurin is a common sign of viable cells or microbes.

T1 sequence (Q06187 whole entry): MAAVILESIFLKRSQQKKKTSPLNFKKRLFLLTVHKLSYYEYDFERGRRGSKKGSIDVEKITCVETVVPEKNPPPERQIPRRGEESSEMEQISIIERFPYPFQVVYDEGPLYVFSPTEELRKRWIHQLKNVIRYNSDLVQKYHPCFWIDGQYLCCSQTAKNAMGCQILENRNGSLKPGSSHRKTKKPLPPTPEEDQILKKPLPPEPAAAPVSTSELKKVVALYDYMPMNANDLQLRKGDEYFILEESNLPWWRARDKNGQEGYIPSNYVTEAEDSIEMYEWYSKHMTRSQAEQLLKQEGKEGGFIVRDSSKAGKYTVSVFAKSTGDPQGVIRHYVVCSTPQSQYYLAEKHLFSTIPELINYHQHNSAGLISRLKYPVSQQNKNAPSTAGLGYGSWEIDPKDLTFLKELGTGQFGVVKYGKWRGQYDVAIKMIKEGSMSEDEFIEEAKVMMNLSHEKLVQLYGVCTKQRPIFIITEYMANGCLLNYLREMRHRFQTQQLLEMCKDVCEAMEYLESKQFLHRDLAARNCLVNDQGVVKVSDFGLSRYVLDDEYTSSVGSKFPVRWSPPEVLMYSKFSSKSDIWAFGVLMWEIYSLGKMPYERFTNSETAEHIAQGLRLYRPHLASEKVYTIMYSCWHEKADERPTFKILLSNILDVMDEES
T2 sequence (Q06187 whole entry C481S): as the sequence (Q06187 whole entry) above, with C481S counted along it

`COc1ccccc1C(=O)NCc1ccc(-c2nn(C3CCC(C)(C)CC3)c(N)c2C(N)=O)cc1` [Example 26, 5-Amino-1-(4,4-dimethylcyclohexyl)-3-[4-[[(2-methoxybenzoyl)amino]methyl]phenyl]pyrazole-4-carboxamide]: the IC50 was less than 10 nM in test [1], less than 10 nM in test [2], 10 to 100 nM at Recombinant EGFR and less than 10 nM in test [3].
As for `COc1ccccc1C(=O)NCc1ccc(-c2nn(C3CCOC(C)C3)c(N)c2C(N)=O)cc1` (mixture of isomers) [Example 85, 5-amino-3-[4-[[(2-methoxybenzoyl)amino]methyl]phenyl]-1-(2-methyltetrahydropyran-4-yl)pyrazole-4-carboxamide], the IC50 in test [1] was less than 10 nM; in test [2] it was less than 10 nM; at Recombinant EGFR it was 100 to 1000 nM; in test [3] it was 10 to 100 nM.
For the compound `COc1ccc(C)cc1C(=O)NCc1ccc(-c2nn(C3CCCC3)c(N)c2C(N)=O)cc1F` [Example 92, 5-amino-1-cyclopentyl-3-[3-fluoro-4-[[(2-methoxy-5-methyl-benzoyl)amino]methyl]phenyl]pyrazole-4-carboxamide], the IC50 in test [1] is less than 10 nM; in test [2], less than 10 nM; on Recombinant EGFR it was more than 10000 nM; in test [3], 10 to 100 nM.
For the compound `COc1ccccc1C(=O)NCc1ccc(-c2nn(C(C)CO)c(N)c2C(N)=O)cc1` (stereo not drawn) [Example 135, 5-amino-1-(2-hydroxy-1-methyl-ethyl)-3-[4-[[(2-methoxybenzoyl)amino]methyl]phenyl]pyrazole-4-carboxamide], the IC50 in test [1] is 10 to 100 nM; in test [2] it was less than 10 nM; at Recombinant EGFR, more than 10000 nM; in test [3], 1000 to 10000 nM.
For `COc1ccccc1C(=O)NCc1ccc(-c2nn([C@@H]3CCOC3)c(N)c2C(N)=O)cc1` [Example 83b, 5-amino-3-[4-[[(2-methoxybenzoyl)amino]methyl]phenyl]-1-[(3R)-tetrahydrofuran-3-yl]pyrazole-4-carboxamide] the same measures were less than 10 nM, less than 10 nM, 1000 to 10000 nM and 10 to 100 nM.
Take `COc1ccc(F)cc1C(=O)NCc1ccc(-c2nn(C3COCC3(F)F)c(N)c2C(N)=O)cc1` (stereo not drawn) [Example 200, 5-amino-1-(4,4-difluorotetrahydrofuran-3-yl)-3-[4-[[(5-fluoro-2-methoxy-benzoyl)amino]methyl]phenyl]pyrazole-4-carboxamide]: the IC50 in test [1] was less than 10 nM; in test [2], less than 10 nM; on Recombinant EGFR, 1000 to 10000 nM; in test [3], 10 to 100 nM.
As for `COc1ccccc1C(=O)NCc1ccc(-c2nn(C3CCCC3)c(N)c2C(N)=O)cc1F` [Example 93, 5-amino-1-cyclopentyl-3-[3-fluoro-4-[[(2-methoxybenzoyl)amino]methyl]phenyl]pyrazole-4-carboxamide], the IC50 in test [1] is less than 10 nM; in test [2], less than 10 nM; on Recombinant EGFR it was 100 to 1000 nM; in test [3] it was 10 to 100 nM.
In the case of `COc1ccc(F)cc1C(=O)NCc1ccc(-c2nn(C3CCOC3)c(N)c2C(N)=O)c(F)c1` (stereo not drawn) [Example 105, 5-amino-3-[2-fluoro-4-[[(5-fluoro-2-methoxy-benzoyl)amino]methyl]phenyl]-1-tetrahydrofuran-3-yl-pyrazole-4-carboxamide], the IC50 was 10 to 100 nM in test [1], less than 10 nM in test [2], 1000 to 10000 nM on Recombinant EGFR and 100 to 1000 nM in test [3].
In the same order, the values of `COc1ccccc1C(=O)NCc1c(F)cc(-c2nn(C3CCCC3)c(N)c2C(N)=O)cc1F` [Example 138, 5-amino-1-cyclopentyl-3-[3,5-difluoro-4-[[(2-methoxybenzoyl)amino]methyl]phenyl]pyrazole-4-carboxamide] are 10 to 100 nM, 10 to 100 nM, more than 10000 nM and 100 to 1000 nM.
For `CCn1nc(-c2ccc(CNC(=O)c3cc(F)ccc3OC)cc2)c(C(N)=O)c1N` [Example 195, 5-amino-1-ethyl-3-[4-[[(5-fluoro-2-methoxy-benzoyl)amino]methyl]phenyl]pyrazole-4-carboxamide] the same measures were less than 10 nM, less than 10 nM, 1000 to 10000 nM and 10 to 100 nM.
Turning to `COc1ccccc1C(=O)NCc1ccc(-c2nn(C(C)c3cccnc3)c(N)c2C(N)=O)cc1` (stereo not drawn) [Example 145, 5-amino-3-[4-[[(2-methoxybenzoyl)amino]methyl]phenyl]-1-[1-(3-pyridyl)ethyl]pyrazole-4-carboxamide], the IC50 is 10 to 100 nM in test [1], 10 to 100 nM in test [2], more than 10000 nM at Recombinant EGFR and 100 to 1000 nM in test [3].
Take `COc1ccccc1C(=O)NCc1ccc(-c2nn(-c3ccc(C)cc3)c(N)c2C(N)=O)cc1` [Example 44, 5-amino-3-[4-[[(2-methoxybenzoyl)amino]methyl]phenyl]-1-(p-tolyl)pyrazole-4-carboxamide]: the IC50 in test [1] was less than 10 nM; in test [2] it was less than 10 nM; at Recombinant EGFR it was 100 to 1000 nM; in test [3] it was 10 to 100 nM.
On to `COc1ccccc1C(=O)NCc1ccc(-c2nn(C(C)C(F)(F)F)c(N)c2C(N)=O)cc1` (stereo not drawn) [Example 121, 5-amino-3-[4-[[(2-methoxybenzoyl)amino]methyl]phenyl]-1-(2,2,2-trifluoro-1-methyl-ethyl)pyrazole-4-carboxamide], for which the IC50 in test [1] is less than 10 nM; in test [2], less than 10 nM; on Recombinant EGFR, 100 to 1000 nM; in test [3], 10 to 100 nM.
In the case of `COc1ccccc1C(=O)NCc1ccc(-c2nn(C3CCCC3)c(N)c2C(N)=O)c(F)c1` [Example 130, 5-amino-1-cyclopentyl-3-[2-fluoro-4-[[(2-methoxybenzoyl)amino]methyl]phenyl]pyrazole-4-carboxamide], the IC50 was less than 10 nM in test [1], less than 10 nM in test [2], 1000 to 10000 nM at Recombinant EGFR and 10 to 100 nM in test [3].
On to `COc1ccc(F)cc1C(=O)NCc1ccc(-c2nn(CC(C)C(F)(F)F)c(N)c2C(N)=O)cc1` (stereo not drawn) [Example 176, 5-amino-3-[4-[[(5-fluoro-2-methoxy-benzoyl)amino]methyl]phenyl]-1-(3,3,3-trifluoro-2-methyl-propyl)pyrazole-4-carboxamide], for which the IC50 was less than 10 nM in test [1], less than 10 nM in test [2], 1000 to 10000 nM on Recombinant EGFR and 10 to 100 nM in test [3].
As for `COc1ccccc1C(=O)NCc1ccc(-c2nn(CCO)c(N)c2C(N)=O)cc1` [Example 31, 5-Amino-1-(2-hydroxyethyl)-3-[4-[[(2-methoxybenzoyl)amino]methyl]phenyl]pyrazole-4-carboxamide], the IC50 was 10 to 100 nM in test [1], 10 to 100 nM in test [2], more than 10000 nM at Recombinant EGFR and 1000 to 10000 nM in test [3].
On to `COc1ccccc1C(=O)NCc1ccc(-c2nn(C(C)(C)C)c(N)c2C(N)=O)cc1` [Example 3, 5-amino-1-tert-butyl-3-[4-[[(2-methoxybenzoyl)amino]methyl]phenyl]pyrazole-4-carboxamide], for which the IC50 was less than 10 nM in test [1], less than 10 nM in test [2], 100 to 1000 nM at Recombinant EGFR and 10 to 100 nM in test [3].
For the compound `COc1ccccc1C(=O)NCc1ccc(-c2nn(C3CNCC3(F)F)c(N)c2C(N)=O)cc1` (stereo not drawn) [Example 144, 5-amino-1-(4,4-difluoropyrrolidin-3-yl)-3-[4-[[(2-methoxybenzoyl)amino]methyl]phenyl]pyrazole-4-carboxamide], the IC50 in test [1] was less than 10 nM; in test [2] it was less than 10 nM; at Recombinant EGFR, 100 to 1000 nM; in test [3], 100 to 1000 nM.
As to `COc1ccc(F)cc1C(=O)NCc1ccc(-c2nn(C3CCCC3)c(N)c2C(N)=O)c(F)c1` [Example 136, 5-amino-1-cyclopentyl-3-[2-fluoro-4-[[(5-fluoro-2-methoxy-benzoyl)amino]methyl]phenyl]pyrazole-4-carboxamide], the IC50 is less than 10 nM in test [1], less than 10 nM in test [2], 1000 to 10000 nM on Recombinant EGFR and 10 to 100 nM in test [3].
In the case of `COc1ccc(F)cc1C(=O)NCc1ccc(-c2nn([C@H]3CCOC3)c(N)c2C(N)=O)cc1` [Example 162, 5-amino-3-[4-[[(5-fluoro-2-methoxy-benzoyl)amino]methyl]phenyl]-1-[(3S)-tetrahydrofuran-3-yl]pyrazole-4-carboxamide], the IC50 in test [1] is less than 10 nM; in test [2], less than 10 nM; at Recombinant EGFR, 1000 to 10000 nM; in test [3] it was 10 to 100 nM.
As for `COc1ccccc1C(=O)NCc1ccc(-c2nn(C3CCCOC3)c(N)c2C(N)=O)c(F)c1` (stereo not drawn) [Example 102, 5-amino-3-[2-fluoro-4-[[(2-methoxybenzoyl)amino]methyl]phenyl]-1-tetrahydropyran-3-yl-pyrazole-4-carboxamide], the IC50 in test [1] is less than 10 nM; in test [2], less than 10 nM; on Recombinant EGFR, more than 10000 nM; in test [3], 100 to 1000 nM.
